Experimental data reported in ChEMBL document CHEMBL1201862, “PubChem BioAssay data set” (2004).
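Five compound concentrations were applied to cells in 96-well plates for 48 hours; endpoints were derived by simple linear interpolation of the resulting dose-response curve. GI50 is the concentration that inhibits growth by half.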 Calls of active or inactive are those of the source. Cut-off read from the data, not from the text of the source: active = GI50 up to about 1.1 µM and inactive = higher.

What was measured:
Test in all cases: growth of human tumour cells (NCI), 48 h
SR = test system: SR
SNB-75 = test system: SNB-75
HT-29 = test system: HT-29
Malme-3M = test system: Malme-3M
NCI/ADR-RES = test system: NCI/ADR-RES
UACC-62 = test system: UACC-62
SK-MEL-5 = test system: SK-MEL-5
MOLT-4 = test system: MOLT-4
T47D = test system: T47D
HOP-62 = test system: HOP-62
K562 = test system: K562
MDA-N = test system: MDA-N
IGROV-1 = test system: IGROV-1
EKVX = test system: EKVX
OVCAR-3 = test system: OVCAR-3
SK-MEL-28 = test system: SK-MEL-28
NCI-H226 = test system: NCI-H226
TK-10 = test system: TK-10
SK-OV-3 = test system: SK-OV-3
OVCAR-4 = test system: OVCAR-4
RPMI-8226 = test system: RPMI-8226
KM12 = test system: KM12
SF-295 = test system: SF-295
CCRF-CEM = test system: CCRF-CEM
MDA-MB-435 = test system: MDA-MB-435
786-0 = test system: 786-0
MCF7 = test system: MCF7
UO-31 = test system: UO-31
CAKI-1 = test system: CAKI-1
SF-539 = test system: SF-539
SNB-19 = test system: SNB-19
DU-145 = test system: DU-145
PC-3 = test system: PC-3
A549 = test system: A549
RXF 393 = test system: RXF 393
NCI-H23 = test system: NCI-H23
ACHN = test system: ACHN
A498 = test system: A498
SF-268 = test system: SF-268
SK-MEL-2 = test system: SK-MEL-2
UACC-257 = test system: UACC-257
HL-60 = test system: HL-60
HCT-15 = test system: HCT-15
NCI-H460 = test system: NCI-H460
SN12C = test system: SN12C
SW-620 = test system: SW-620
COLO 205 = test system: COLO 205
Hs-578T = test system: Hs-578T
LOX IMVI = test system: LOX IMVI
M14 = test system: M14
HCC 2998 = test system: HCC 2998
OVCAR-8 = test system: OVCAR-8
U-251 = test system: U-251
NCI-H522 = test system: NCI-H522
MDA-MB-231 = test system: MDA-MB-231
HCT-116 = test system: HCT-116
OVCAR-5 = test system: OVCAR-5
HOP-92 = test system: HOP-92

`COc1cc([C@@H]2c3cc4c(cc3[C@@H](Nc3ccc(Cl)cc3C(=O)c3ccccc3Cl)[C@H]3COC(=O)[C@H]23)OCO4)cc(OC)c1OC` was tested, and the GI50 (SR) was 71.3 nM (active), the GI50 (SNB-75) was 188 nM (active) and the GI50 (HT-29) was 90 nM (active). For the same molecule, the GI50 (Malme-3M) was 143 nM (active), the GI50 (NCI/ADR-RES) was 173 nM (active) and the GI50 (UACC-62) was 118 nM (active). The GI50 (SK-MEL-5) was 102 nM (active), the GI50 (MOLT-4) was 142 nM (active) and the GI50 (T47D) was > 100000 nM (inactive). The GI50 (HOP-62) was 443 nM (active), the GI50 (K562) was 106 nM (active) and the GI50 (MDA-N) was 87.3 nM (active). The GI50 (IGROV-1) was 261 nM (active), the GI50 (EKVX) was 57900 nM (inactive) and the GI50 (OVCAR-3) was 332 nM (active). For the same molecule, the GI50 (SK-MEL-28) was 333 nM (active), the GI50 (NCI-H226) was 29.4 nM (active) and the GI50 (TK-10) was 39700 nM (inactive). The GI50 (SK-OV-3) was 1190 nM (inactive), the GI50 (OVCAR-4) was > 45800 nM (inactive) and the GI50 (RPMI-8226) was 173 nM (active). For the same molecule, the GI50 (KM12) was 91 nM (active), the GI50 (SF-295) was 121 nM (active) and the GI50 (CCRF-CEM) was 101 nM (active). For the same molecule, the GI50 (MDA-MB-435) was 66.1 nM (active), the GI50 (786-0) was 261 nM (active) and the GI50 (MCF7) was 111 nM (active). For the same molecule, the GI50 (UO-31) was 344 nM (active), the GI50 (CAKI-1) was 152 nM (active) and the GI50 (SF-539) was 76 nM (active). The GI50 (SNB-19) was 174 nM (active), the GI50 (DU-145) was 314 nM (active) and the GI50 (PC-3) was 160 nM (active). For the same molecule, the GI50 (A549) was 340 nM (active), the GI50 (RXF 393) was 144 nM (active) and the GI50 (NCI-H23) was 166 nM (active). For the same molecule, the GI50 (ACHN) was 125 nM (active), the GI50 (A498) was 98.9 nM (active) and the GI50 (SF-268) was 189 nM (active). The GI50 (SK-MEL-2) was 953 nM (active), the GI50 (UACC-257) was 184 nM (active) and the GI50 (HL-60) was 69.5 nM (active). For the same molecule, the GI50 (HCT-15) was 102 nM, the GI50 (NCI-H460) was 146 nM (active) and the GI50 (SN12C) was 371 nM (active). The GI50 (SW-620) was 122 nM (active), the GI50 (COLO 205) was 267 nM (active) and the GI50 (Hs-578T) was 24.1 nM (active). The GI50 (LOX IMVI) was 245 nM (active), the GI50 (M14) was 303 nM (active) and the GI50 (HCC 2998) was 373 nM (active). For the same molecule, the GI50 (OVCAR-8) was 152 nM (active), the GI50 (U-251) was 99.8 nM (active) and the GI50 (NCI-H522) was 68.5 nM (active). For the same molecule, the GI50 (MDA-MB-231) was 390 nM (active) and the GI50 (HCT-116) was 73.8 nM (active).
In the case of `COc1cc(C=C2C(C)=NN(c3cccc(Cl)c3)C23C(Cl)C(=O)N3c2nc3ccccc3s2)ccc1O` (configuration not stated), the GI50 (SR) is reported as 111 nM (active), the GI50 (HT-29) is reported as 4530 nM (inactive) and the GI50 (NCI/ADR-RES) is reported as 38800 nM (inactive). The GI50 (SK-MEL-5) was 17200 nM (inactive), the GI50 (MOLT-4) was 461 nM (active) and the GI50 (T47D) was 27000 nM (inactive). The GI50 (HOP-62) was 20400 nM (inactive), the GI50 (K562) was 3610 nM (inactive) and the GI50 (MDA-N) was 16300 nM (inactive). The GI50 (IGROV-1) was 15800 nM (inactive), the GI50 (OVCAR-5) was 20700 nM (inactive) and the GI50 (EKVX) was 31400 nM (inactive). For the same molecule, the GI50 (OVCAR-3) was 26400 nM (inactive), the GI50 (SK-MEL-28) was 23300 nM (inactive) and the GI50 (NCI-H226) was 22400 nM (inactive). The GI50 (TK-10) was 30700 nM (inactive), the GI50 (SK-OV-3) was 26300 nM (inactive) and the GI50 (OVCAR-4) was 28500 nM (inactive). The GI50 (RPMI-8226) was 7260 nM (inactive), the GI50 (KM12) was 5850 nM (inactive) and the GI50 (SF-295) was 37100 nM (inactive). For the same molecule, the GI50 (CCRF-CEM) was 2070 nM (inactive), the GI50 (MDA-MB-435) was 12400 nM (inactive) and the GI50 (786-0) was 19800 nM (inactive). The GI50 (MCF7) was 28200 nM (inactive), the GI50 (UO-31) was 20700 nM (inactive) and the GI50 (CAKI-1) was 26300 nM (inactive). For the same molecule, the GI50 (SF-539) was 35400 nM (inactive), the GI50 (DU-145) was 21900 nM (inactive) and the GI50 (PC-3) was 14900 nM (inactive). The GI50 (RXF 393) was 13500 nM (inactive), the GI50 (NCI-H23) was 18400 nM (inactive) and the GI50 (ACHN) was 19200 nM (inactive). For the same molecule, the GI50 (A498) was 17900 nM (inactive), the GI50 (SF-268) was 3090 nM (inactive) and the GI50 (SK-MEL-2) was 17500 nM (inactive). The GI50 (UACC-257) was 23100 nM (inactive), the GI50 (HL-60) was 546 nM (active) and the GI50 (HCT-15) was 20700 nM. For the same molecule, the GI50 (HOP-92) was 6700 nM (inactive), the GI50 (NCI-H460) was 25400 nM (inactive) and the GI50 (SW-620) was 10700 nM (inactive). The GI50 (Hs-578T) was 7360 nM (inactive), the GI50 (LOX IMVI) was 18100 nM (inactive) and the GI50 (M14) was 11600 nM (inactive). For the same molecule, the GI50 (HCC 2998) was 2560 nM (inactive), the GI50 (OVCAR-8) was 16800 nM (inactive) and the GI50 (U-251) was 15000 nM (inactive). For the same molecule, the GI50 (NCI-H522) was 3500 nM (inactive), the GI50 (MDA-MB-231) was 4080 nM (inactive) and the GI50 (HCT-116) was 19900 nM (inactive).
